From PMC7395068, “The evolution of strategies to minimise the risk of human drug-induced liver injury (DILI) in drug discovery and development” (Archives of Toxicology, 2020)
Read-outs that look alike come from different tables or passages of the source. Values belong to the molecule of their own block, whether it stands above or below them.

Experiments:
[1] = test system: primary human hepatocytes, NIH3T3 fibroblasts, BSEP, CYP3A4; settings: cited from earlier work
[2] = cited from earlier work; for DILI severity category (Chen et al. [2016]): LTKB DILIrank category; for DILI severity category (Chen et al. [2016]) / DILI severity category (Chen 2016): ref Chen et al. 2016; for DILI severity category (Chen 2016): human DILI classification, LTKB DILIrank
[3] = cited from earlier work; for Assigned DILI category: Chen et al. 2016 or literature alignment, ref Chen et al. 2016
[4] = test system: THLE or HepG2 cells, isolated mitochondria, BSEP; settings: cited from earlier work
[5] = test system: hLiMTs; experiment: Combined HCI (HCS) and cellular ATP 3D assay in hLiMTs; settings: for AC50 / minimal effective concentration: Homo sapiens; for DILI prediction hLiMTs (HCS-MEC): Microtissue model structural based (HCI), combined HCS and ATP, MEC < 25 × Cmax.tot cut-off; for hLiMTs <25x Avg Cmax ATP / hLiMTs <100x Avg Cmaxu ATP: ATP endpoint; for hLiMTs <25x Avg Cmax ATP / hLiMTs <25x Avg Cmax HCS / hLiMTs <25x Avg Cmax All: cut-off <25x Avg Cmax; for hLiMTs <100x Avg Cmaxu ATP / hLiMTs <100x Avg Cmaxu HCS / hLiMTs <100x Avg Cmaxu All: cut-off <100x Avg Cmaxu; for hLiMTs <25x Avg Cmax HCS / hLiMTs <100x Avg Cmaxu HCS: HCS endpoints; for hLiMTs <25x Avg Cmax All: all endpoints (ATP and HCS); for hLiMTs Cmax max All / hLiMTs Cmax min All / hLiMTs <10 uM All / hLiMTs <100x Avg Cmaxu All: all endpoints; for hLiMTs Cmax max All: Cmax max used; for hLiMTs Cmax min All: Cmax min used; for hLiMTs <10 uM All: cut-off <10 uM
[6] = plasma free fraction; cited from earlier work
[7] = test system: HepaRG spheroids; experiment: Combined HCI (HCS) and cellular ATP 3D assay in HepaRG spheroids; settings: for HepaRG <25x Avg Cmax ATP / HepaRG <100x Avg Cmaxu ATP: ATP endpoint; for HepaRG <25x Avg Cmax ATP / HepaRG <25x Avg Cmax HCS / HepaRG <25x Avg Cmax All: cut-off <25x Avg Cmax; for HepaRG <100x Avg Cmaxu ATP / HepaRG <100x Avg Cmaxu HCS / HepaRG <100x Avg Cmaxu All: cut-off <100x Avg Cmaxu; for HepaRG <25x Avg Cmax HCS / HepaRG <100x Avg Cmaxu HCS: HCS endpoints; for HepaRG <25x Avg Cmax All: all endpoints (ATP and HCS); for HepaRG Cmax max All / HepaRG Cmax min All / HepaRG <10 uM All / HepaRG <100x Avg Cmaxu All: all endpoints; for HepaRG Cmax max All: Cmax max used; for HepaRG Cmax min All: Cmax min used; for HepaRG <10 uM All: cut-off <10 uM; for AC50 / minimal effective concentration: Homo sapiens; for HepaRG <25x Avg Cmax ATP / HepaRG <100x Avg Cmaxu ATP / HepaRG <25x Avg Cmax HCS / HepaRG <100x Avg Cmaxu HCS / HepaRG <25x Avg Cmax All / HepaRG Cmax max All / HepaRG Cmax min All / HepaRG <10 uM All / HepaRG <100x Avg Cmaxu All / AC50 / minimal effective concentration: HepaRG; for DILI prediction HepaRG spheroids (HCS-MEC): Microtissue model structural based (HCI), combined HCS and ATP, MEC < 25 × Cmax.tot cut-off
[8] = test system: PHH; settings: cited from earlier work; for PHH/100xCmax, Proctor (2017) / PHH/100uM, Proctor (2017): 2D PHH, ATP, ref Proctor et al. 2017; for PHH/100xCmax, Proctor (2017): IC50 < 100 × Cmax.tot; for PHH/100uM, Proctor (2017): IC50 threshold 100 µM; for PHH ATP <100uM: In vitro Assay, ref Proctor 2017
[9] = test system: hLiMTs; settings: cited from earlier work; for hLiMTs ATP <100uM: In vitro Assay, ref Proctor 2017; for hLiMTs/100xCmax, Proctor (2017) / hLiMTs/100uM, Proctor (2017): ATP, ref Proctor et al. 2017; for hLiMTs/100xCmax, Proctor (2017): IC50 < 100 × Cmax.tot; for hLiMTs/100uM, Proctor (2017): IC50 threshold 100 µM
[10] = test system: HepG2 C3A spheroid, BSEP, Glu/Gal in HepG2 cells, bioactivation; settings: cited from earlier work; for Bayesian Machine Learning DILI prediction, Williams (2019): Bayesian modeling, ref Williams et al. 2019; for Bayesian Machine Learning: In vitro Assay, ref Williams 2019
[11] = read-out: Human plasma Cmax; total plasma Cmax.tot, median of 9 literature references; cited from earlier work
[12] = Plasma free fraction (fu) and unbound Cmax (Cmax,u); type: in vitro ADME, human; settings: unbound plasma Cmax
[13] = test system: human hepatocytes; settings: cited from earlier work
[14] = test system: PHH spheroids; settings: cited from earlier work
[15] = In vitro Assay, ref Schadt 2015
[16] = human DILI severity, ref Chen et al.
[17] = Modeled in vitro assays (cytotoxicity, mitochondrial dysfunction, BSEP), ref Aleo et al. 2019

hLiMTs <25x Avg Cmax ATP [5]: -ve
hLiMTs <100x Avg Cmaxu ATP [5]: -ve
hLiMTs <25x Avg Cmax HCS [5]: +ve
hLiMTs <100x Avg Cmaxu HCS [5]: -ve
hLiMTs <25x Avg Cmax All [5]: +ve
hLiMTs Cmax max All [5]: +ve
hLiMTs Cmax min All [5]: -ve
hLiMTs <10 uM All [5]: -ve
hLiMTs <100x Avg Cmaxu All [5]: -ve
HepaRG <25x Avg Cmax ATP [7]: +ve
HepaRG <100x Avg Cmaxu ATP [7]: -ve
HepaRG <25x Avg Cmax HCS [7]: +ve
HepaRG <100x Avg Cmaxu HCS [7]: -ve
HepaRG <25x Avg Cmax All [7]: +ve
HepaRG Cmax max All [7]: +ve
HepaRG Cmax min All [7]: +ve
HepaRG <10 uM All [7]: -ve
HepaRG <100x Avg Cmaxu All [7]: -ve
Human plasma Cmax,u [12]: 0.072 µM
SMILES: CCN(CC)C(=O)/C(C#N)=C/c1cc(O)c(O)c([N+](=O)[O-])c1 [entacapone]
DILI in vitro assay prediction, Schadt (2015) ([1]; BSEP & Metabolism based, ref Schadt et al. 2015): -VE
Cellular toxicity (3T3 cells) [1, 15]: -VE
Combined Assay [1, 15]: -VE
GSH adduct HML [1, 15]: -VE
Hepatocyte cellular toxicity [1, 15]: -VE
MitoTox 3T3 [1, 15]: -VE
TDI CYP3A4 [1, 15]: -VE
hBSEP inhibition [1, 15]: -VE
DILI severity category (Chen et al. [2016]) [2]: Less
DILI severity category (Chen 2016) [2]: Less
DILI severity category [2, 16]: Less
DILI +VE (5-8), DILI -VE (-4) ([2]; ref Chen 2016): +VE
DILI severity category ([2]; ref Chen 2016): vLess-DILI-Concern
Assigned DILI category [3]: 2
In vivo DILI ([3]; ref Aleo 2019): +VE
In vivo DILI ([3]; ref Proctor 2017): -VE
In vivo DILI ([3]; ref Schadt 2015): -VE
In vivo DILI ([3]; ref Williams 2019): -VE
Partition Hybrid HRM Score ([4]; In vitro Assay, ref Aleo 2019): +VE
Ro2 Hybrid HRM Score ([4]; In vitro Assay, ref Aleo 2019): +VE
Partition Hybrid HRM Score ≥4, Aleo (2019) [4, 17]: +VE (Partition Hybrid HRM Score ≥4)
Partition Hybrid HRM Score ≥8, Aleo (2019) [4, 17]: +VE (Partition Hybrid HRM Score ≥8)
Rule of Two hybrid HRM Score ≥3, Aleo (2019) [4, 17]: +VE (Rule of Two hybrid HRM Score ≥3)
Rule of Two hybrid HRM Score ≥8, Aleo (2019) [4, 17]: -VE
AC50 ([5]; read-out: ATP endpoint AC50): 150 µM
minimal effective concentration ([5]; read-out: ATP endpoint MEC): 125 µM
AC50 ([5]; read-out: HCS endpoint AC50): 139 µM
minimal effective concentration ([5]; read-out: HCS endpoint MEC): 88.8 µM
DILI prediction hLiMTs (HCS-MEC) [5]: +VE (MEC < 25 × Cmax.tot cut-off)
fu [6]: 0.020
AC50 ([7]; read-out: ATP endpoint AC50): 115 µM
minimal effective concentration ([7]; read-out: ATP endpoint MEC): 45.5 µM
AC50 ([7]; read-out: HCS endpoint AC50): 129 µM
minimal effective concentration ([7]; read-out: HCS endpoint MEC): 45.4 µM
DILI prediction HepaRG spheroids (HCS-MEC) [7]: +VE (MEC < 25 × Cmax.tot cut-off)
PHH/100xCmax, Proctor (2017) [8]: +VE (IC50 < 100 × Cmax.tot)
PHH/100uM, Proctor (2017) [8]: -VE
PHH ATP <100uM [8]: +VE (IC50 threshold of 100 µM)
hLiMTs ATP <100uM [9]: -VE
hLiMTs/100xCmax, Proctor (2017) [9]: +VE (IC50 < 100 × Cmax.tot)
hLiMTs/100uM, Proctor (2017) [9]: -VE
Bayesian Machine Learning DILI prediction, Williams (2019) [10]: -VE
Bayesian Machine Learning [10]: -VE
Cmax [11]: 3.59 µM

hLiMTs <25x Avg Cmax ATP [5]: -ve
hLiMTs <100x Avg Cmaxu ATP [5]: -ve
hLiMTs <25x Avg Cmax HCS [5]: -ve
hLiMTs <100x Avg Cmaxu HCS [5]: -ve
hLiMTs <25x Avg Cmax All [5]: -ve
hLiMTs Cmax max All [5]: -ve
hLiMTs Cmax min All [5]: -ve
hLiMTs <10 uM All [5]: -ve
hLiMTs <100x Avg Cmaxu All [5]: -ve
HepaRG <25x Avg Cmax ATP [7]: -ve
HepaRG <100x Avg Cmaxu ATP [7]: -ve
HepaRG <25x Avg Cmax HCS [7]: -ve
HepaRG <100x Avg Cmaxu HCS [7]: -ve
HepaRG <25x Avg Cmax All [7]: -ve
HepaRG Cmax max All [7]: -ve
HepaRG Cmax min All [7]: -ve
HepaRG <10 uM All [7]: -ve
HepaRG <100x Avg Cmaxu All [7]: -ve
Human plasma Cmax,u [12]: 0.294 µM
SMILES: CC(C)(C)NCC(O)COc1cccc2c1CC(O)C(O)C2 (stereo not drawn) [nadolol]
Structural based (HCI) ([13]; In vitro Assay, ref Xu 2008): -VE
DILI in vitro assay prediction, Xu (2008) ([13]; Structural based (HCI), human hepatocytes, ref Xu et al. 2008): -VE
DILI severity category (Chen et al. [2016]) [2]: Ambiguous
DILI severity category (Chen 2016) [2]: Ambiguous
DILI severity category [2, 16]: Ambiguous
DILI +VE (5-8), DILI -VE (-4) ([2]; ref Chen 2016): -VE
DILI severity category ([2]; ref Chen 2016): Ambiguous DILI-concern
hLiMTs ATP <20 x Cmax ([14]; In vitro Assay, ref Vorrink 2018): -VE
DILI in vitro assay prediction, Vorrink (2018) ([14]; PHH spheroids, ATP, 14 days, IC20 < 20 × Cmax.tot, ref Vorrink et al. 2018): -VE
Assigned DILI category [3]: 1
In vivo DILI ([3]; ref Proctor 2017): -VE
In vivo DILI ([3]; ref Vorrink 2018): -VE
In vivo DILI ([3]; ref Williams 2019): -VE
In vivo DILI ([3]; ref Xu 2008): -VE
DILI prediction hLiMTs (HCS-MEC) [5]: -VE
fu [6]: 0.700
DILI prediction HepaRG spheroids (HCS-MEC) [7]: -VE
PHH/100xCmax, Proctor (2017) [8]: -VE
PHH/100uM, Proctor (2017) [8]: -VE
PHH ATP <100uM [8]: -VE
hLiMTs ATP <100uM [9]: -VE
hLiMTs/100xCmax, Proctor (2017) [9]: -VE
hLiMTs/100uM, Proctor (2017) [9]: -VE
Bayesian Machine Learning DILI prediction, Williams (2019) [10]: -VE
Bayesian Machine Learning [10]: -VE
Cmax [11]: 0.42 µM
